# From article PMC12723449, “From Pharmacophore to Warhead: NAD^+‐Targeting Triazoles as Mechanism‐Based Sirtuin Inhibitors” (Angewandte Chemie (International Ed. in English), 2025)
# Read-outs that look alike come from different tables or passages of the source.
# Tests used:
# Type in all cases: biochemical
# SIRT1 = target: T1, SIRT1 (Homo sapiens, UniProt Q96EB6); experiment: Fluorescence-based deacetylation assay (ZMAL-assay), SIRT1; details: 37 °C, assay limit 0.10 µM
# T1 construct: For assay experiments, strep-tagged human SIRT1134−747 and SIRT256-356 were expressed and purified as previously; Strep-tag; made in house; host or cells: E. coli BL21 Star (DE3)
# T1 sequence (Q96EB6 134-747 limits assumed): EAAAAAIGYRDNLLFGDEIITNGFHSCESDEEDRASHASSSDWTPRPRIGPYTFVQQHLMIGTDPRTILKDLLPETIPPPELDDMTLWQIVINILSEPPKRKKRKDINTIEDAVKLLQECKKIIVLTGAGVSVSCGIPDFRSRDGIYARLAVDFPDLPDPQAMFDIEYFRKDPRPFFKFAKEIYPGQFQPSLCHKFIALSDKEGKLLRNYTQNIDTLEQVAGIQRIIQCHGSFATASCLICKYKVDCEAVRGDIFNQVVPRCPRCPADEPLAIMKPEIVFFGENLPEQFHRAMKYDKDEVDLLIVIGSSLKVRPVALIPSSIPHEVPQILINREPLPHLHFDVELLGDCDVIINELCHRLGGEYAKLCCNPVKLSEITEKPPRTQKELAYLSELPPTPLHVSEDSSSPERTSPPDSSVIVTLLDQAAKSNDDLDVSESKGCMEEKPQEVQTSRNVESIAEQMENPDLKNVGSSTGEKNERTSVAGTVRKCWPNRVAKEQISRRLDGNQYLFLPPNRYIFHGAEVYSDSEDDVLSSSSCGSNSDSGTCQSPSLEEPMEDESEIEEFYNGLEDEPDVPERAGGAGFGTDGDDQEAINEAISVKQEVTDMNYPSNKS
# Experimental: (§1) Determination of IC50 values (SIRT1, SIRT2, SIRT3) via fluorescence-based deacetylation assay […]
# (§2) The fluorescence-based deacetylation assay was conducted in a black 384-well microplate (OptiPlate-384 F, PerkinElmer) with a total volume of 30 µL per well and a final DMSO concentration of 2% (v/v) according to a […]
# (§3) concentration of 100 nM) in assay buffer (50 mM Tris, 137 mM NaCl, 2.7 mM KCl, 1m MgCl2, 0.01% Tween, 0.05 mg/mL BSA, 0.2 mM TCEP, pH 8.0), 5 µL of substrate (ZMAL, final concentration of 10.5 µM), 5 µL of NAD+ (final concentration of 500 µM) and 10 µL of inhibitor solution (final concentration of 30 µM – 0.014 µM, serial 1:3 dilutions) was incubated at 37 °C and 300 rpm for 4 h. A solution of trypsin (final concentration of 0.5 mg/mL) and nicotinamide (final concentration of 4 mM) was added and incubated at 37 °C and 300 rpm for 30 min to stop the reaction. Samples with 2% (v/v) DMSO instead of inhibitor were prepared as a positive control, and samples with 2% (v/v) DMSO instead of SIRT enzyme were prepared as a negative control. Fluorescence intensity was measured with a microplate reader (λEx = 380-10 nm, λEm = 460 nm, BMG POLARstar Optima, BMG Labtech, Germany). IC50 values were then determined using a nonlinear regression fit with Origin Pro 2019 software. All experiments were performed at least in duplicates. […]
# SIRT2 = target: T2, SIRT2 (Homo sapiens, UniProt Q8IXJ6); experiment: Fluorescence-based demyristoylation assay (BSA-Assay)
# T2 construct: For assay experiments, strep-tagged human SIRT1134−747 and SIRT256-356 were expressed and purified as previously; Strep-tag; made in house; host or cells: E. coli BL21 Star (DE3)
# T2 sequence (Q8IXJ6 56-356 limits assumed): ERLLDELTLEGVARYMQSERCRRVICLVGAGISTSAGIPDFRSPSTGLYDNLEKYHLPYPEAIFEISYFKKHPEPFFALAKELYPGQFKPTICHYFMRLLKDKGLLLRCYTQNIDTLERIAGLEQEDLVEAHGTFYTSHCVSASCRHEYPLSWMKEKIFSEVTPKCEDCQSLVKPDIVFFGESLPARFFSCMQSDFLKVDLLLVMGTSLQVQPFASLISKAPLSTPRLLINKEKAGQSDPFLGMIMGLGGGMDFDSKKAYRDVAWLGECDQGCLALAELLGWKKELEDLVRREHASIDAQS
# Experimental: Determination of IC50 values (SIRT2) via fluorescence-based demyristoylation assay (BSA-Assay) The fluorescence-based demyristoylation assay was conducted in a continuous manner in a black 384-well microplate (OptiPlate-384 F, PerkinElmer) with a total volume of 40 µL per well and a final DMSO concentration of 5% (v/v), following a published procedure.[9] A mixture of 14 µL SIRT2 (final concentration of 1 nM) in assay buffer (20 mM Tris, 150 mM NaCl, […], pH 7.8) freshly supplemented with 2 mg/mL of BSA, 14 µL of substrate (F4, KM = 33 ± 5 nM[9], final concentration of 40 nM) and 2 µL of inhibitor solution (final concentration of 100 µM – 0.002 µM, serial 1:2 or 1:4 dilutions) was incubated at 25 °C and 350 rpm for 5 min. Samples with 5% (v/v) DMSO instead of inhibitor were measured as a positive control, and samples with assay buffer and 5% (v/v) DMSO instead of SIRT2 were measured as a negative control. The reaction was started with the addition of 10 µL NAD+ (final concentration of 500 µM) and the product formation was immediately monitored by the change of the fluorescence intensity at 25 °C for 20 min. For NAD+ preincubation experiments, instead of the substrate, 10 µL of NAD+ (final concentration of 500 µM) was added to the solution and incubated at 25 °C and 350 rpm for 15 min. The reaction was started with the addition of 14 µL substrate (final concentration of 40 nM) and the product formation was immediately monitored by the change of the fluorescence intensity at 25 °C every 60 s for 20 min using a microplate reader (λEx = 485 nm, λEm = 530-10 nm, BMG POLARstar Optima, BMG Labtech, Germany).
# The activity was normalized using the positive control as 100% and the negative control as 0%. The normalized activity (v/v0) was plotted as a function of the logarithm of the inhibitor concentration [I], and a nonlinear fit was performed according to the following equation to determine the IC50 value.[9] […]
# SIRT3 = target: T3, SIRT3 (Homo sapiens, UniProt Q9NTG7); experiment: Fluorescence-based deacetylation assay (ZMAL-assay), SIRT3; details: 37 °C, assay limit 0.10 µM
# T3 construct: Human SIRT3118-395 was expressed and purified as previously described.[5]; made in house
# T3 sequence (Q9NTG7 118-395 limits assumed): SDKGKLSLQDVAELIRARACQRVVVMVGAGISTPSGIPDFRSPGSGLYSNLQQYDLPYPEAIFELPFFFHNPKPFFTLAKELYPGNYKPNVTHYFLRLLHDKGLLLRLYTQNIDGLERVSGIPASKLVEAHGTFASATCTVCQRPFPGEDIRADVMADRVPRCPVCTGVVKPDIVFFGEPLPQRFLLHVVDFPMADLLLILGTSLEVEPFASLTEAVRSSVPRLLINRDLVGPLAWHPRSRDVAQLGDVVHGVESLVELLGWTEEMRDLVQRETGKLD
# Experimental: as §1, §2, §3
# [1] = BSA-Assay, 25 °C, read-out: SIRT2 (demyr.) IC50
SIRT1 (deac.) IC50 (SIRT1),IC50 (SIRT2; [1]),SIRT3 (deac.) IC50 (SIRT3),IC50 (SIRT1; read-out: SIRT1 (deac.) IC50),"IC50 (SIRT2; 15 min NAD+ preincubation, read-out: IC50, SIRT2 demyristoylation after NAD+ preincubation)","IC50 (SIRT2; fatty-acylated substrate, without NAD+ preincubation, read-out: IC50, SIRT2 demyristoylation)",IC50 (SIRT3; read-out: SIRT3 (deac.) IC50),SMILES
n.i.,> 10000 nM,n.i.,–,–,–,–,Cc1cc(C)nc(SCC(=O)Nc2ncc(Cc3cccc(OCc4c[nH]nn4)c3)s2)n1 [Compound 7]
–,30 ± 10 nM,–,< 100 nM,3.6 ± 0.6 nM,28 ± 6 nM,130 ± 10 nM,CCCCCCCCCCCCc1cn(CCCC[C@H](NC(=O)[C@H](CCCCN)NC(=O)[C@@H]2CCCN2C(=O)[C@H](CC(C)C)NC(=O)[C@H](C)NC(=O)[C@H](CCC(=O)O)NC(C)=O)C(=O)N[C@H](C(=O)NCC(=O)NCC(N)=O)[C@@H](C)O)nn1 [Compound 6]
n.i.,660 ± 100 nM,n.i.,–,–,–,–,"COCCn1cc(COc2cccc(Cc3cnc(NC(=O)CSc4nc(C)cc(C)n4)s3)c2)nn1 [Compound 1, reference compound]"
